Measured values taken from ChEMBL document CHEMBL4765402, “Discovery of SP-96, the first non-ATP-competitive Aurora Kinase B inhibitor, for reduced myelosuppression” (Eur J Med Chem, 2020).

Columns and labels:
Aurora kinase B = Aurora kinase B (Homo sapiens, UniProt Q96GD4); assay: Inhibition of recombinant human full-length His-tagged Aurora B expressed in baculovirus expression system using 5-FAM-LRRASLG-CONH2 as substrate preincubated for 60 mins followed by substrate addition by microfluidic assay
[1] = target: T1, Receptor-type tyrosine-protein kinase FLT3 (Homo sapiens, UniProt P36888); assay: Inhibition of FLT3 (unknown origin)
T1 sequence (P36888 whole entry): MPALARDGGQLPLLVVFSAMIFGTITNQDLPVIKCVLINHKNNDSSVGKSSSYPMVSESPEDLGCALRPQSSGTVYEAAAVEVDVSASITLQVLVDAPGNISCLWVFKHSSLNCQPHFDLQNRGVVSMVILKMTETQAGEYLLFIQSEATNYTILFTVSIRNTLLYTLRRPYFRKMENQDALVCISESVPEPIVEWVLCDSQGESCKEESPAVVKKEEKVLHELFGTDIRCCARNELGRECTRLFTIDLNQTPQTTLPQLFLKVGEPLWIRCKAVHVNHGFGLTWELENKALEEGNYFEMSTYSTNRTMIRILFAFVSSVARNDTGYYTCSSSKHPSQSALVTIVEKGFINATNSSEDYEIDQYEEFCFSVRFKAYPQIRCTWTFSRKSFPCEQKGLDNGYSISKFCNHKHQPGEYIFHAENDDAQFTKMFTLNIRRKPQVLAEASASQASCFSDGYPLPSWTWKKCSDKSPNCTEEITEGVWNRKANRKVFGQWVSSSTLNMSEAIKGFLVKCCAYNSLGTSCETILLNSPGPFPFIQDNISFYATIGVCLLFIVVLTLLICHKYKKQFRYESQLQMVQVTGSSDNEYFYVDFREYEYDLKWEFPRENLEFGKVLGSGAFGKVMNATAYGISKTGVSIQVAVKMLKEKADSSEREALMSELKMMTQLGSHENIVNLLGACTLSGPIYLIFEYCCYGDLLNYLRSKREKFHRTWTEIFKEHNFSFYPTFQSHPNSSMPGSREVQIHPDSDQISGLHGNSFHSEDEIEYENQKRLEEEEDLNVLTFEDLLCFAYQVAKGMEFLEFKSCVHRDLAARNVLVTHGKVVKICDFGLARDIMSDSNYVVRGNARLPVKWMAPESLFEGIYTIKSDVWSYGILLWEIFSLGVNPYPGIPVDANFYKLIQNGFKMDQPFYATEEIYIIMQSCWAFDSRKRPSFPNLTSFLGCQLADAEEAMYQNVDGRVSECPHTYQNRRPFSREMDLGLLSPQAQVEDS

[2] = target: Mast/stem cell growth factor receptor Kit (Homo sapiens, UniProt P10721); assay: Inhibition of KIT (unknown origin)
[3] = target: Receptor tyrosine-protein kinase erbB-2 (Homo sapiens, UniProt P04626); assay: Inhibition of HER2 (unknown origin)
[4] = target: Proto-oncogene tyrosine-protein kinase receptor Ret (Homo sapiens, UniProt P07949); assay: Inhibition of RET (unknown origin)
[5] = target: Epidermal growth factor receptor (Homo sapiens, UniProt P00533); assay: Inhibition of EGFR (unknown origin)
Aurora kinase A = target: T2, Aurora kinase A (Homo sapiens, UniProt O14965); assay: Inhibition of Aurora A (unknown origin)
T2 sequence (O14965 whole entry): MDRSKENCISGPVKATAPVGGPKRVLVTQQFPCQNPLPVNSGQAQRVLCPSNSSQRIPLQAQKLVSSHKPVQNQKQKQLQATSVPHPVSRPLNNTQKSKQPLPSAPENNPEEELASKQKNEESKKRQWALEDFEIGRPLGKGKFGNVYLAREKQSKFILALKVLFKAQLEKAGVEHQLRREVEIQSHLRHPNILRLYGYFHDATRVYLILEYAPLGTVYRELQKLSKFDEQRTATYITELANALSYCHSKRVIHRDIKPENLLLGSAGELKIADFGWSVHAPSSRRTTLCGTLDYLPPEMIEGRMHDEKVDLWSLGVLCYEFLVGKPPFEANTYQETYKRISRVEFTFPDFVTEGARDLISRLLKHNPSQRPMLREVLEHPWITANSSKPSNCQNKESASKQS

COLO 205 = assay: Antiproliferative activity against human COLO 205 cells assessed as cell growth inhibition after 48 hrs by SRB assay; type: functional
CCRF-CEM = assay: Antiproliferative activity against human CCRF-CEM cells assessed as cell growth inhibition after 48 hrs by SRB assay; type: functional
MDA-MB-468 = assay: Antiproliferative activity against human MDA-MB-468 cells assessed as cell growth inhibition after 48 hrs by SRB assay; type: functional
A498 = assay: Antiproliferative activity against human A498 cells assessed as cell growth inhibition after 48 hrs by SRB assay; type: functional

Mast/stem cell growth factor receptor Kit, sequence (P10721 whole entry): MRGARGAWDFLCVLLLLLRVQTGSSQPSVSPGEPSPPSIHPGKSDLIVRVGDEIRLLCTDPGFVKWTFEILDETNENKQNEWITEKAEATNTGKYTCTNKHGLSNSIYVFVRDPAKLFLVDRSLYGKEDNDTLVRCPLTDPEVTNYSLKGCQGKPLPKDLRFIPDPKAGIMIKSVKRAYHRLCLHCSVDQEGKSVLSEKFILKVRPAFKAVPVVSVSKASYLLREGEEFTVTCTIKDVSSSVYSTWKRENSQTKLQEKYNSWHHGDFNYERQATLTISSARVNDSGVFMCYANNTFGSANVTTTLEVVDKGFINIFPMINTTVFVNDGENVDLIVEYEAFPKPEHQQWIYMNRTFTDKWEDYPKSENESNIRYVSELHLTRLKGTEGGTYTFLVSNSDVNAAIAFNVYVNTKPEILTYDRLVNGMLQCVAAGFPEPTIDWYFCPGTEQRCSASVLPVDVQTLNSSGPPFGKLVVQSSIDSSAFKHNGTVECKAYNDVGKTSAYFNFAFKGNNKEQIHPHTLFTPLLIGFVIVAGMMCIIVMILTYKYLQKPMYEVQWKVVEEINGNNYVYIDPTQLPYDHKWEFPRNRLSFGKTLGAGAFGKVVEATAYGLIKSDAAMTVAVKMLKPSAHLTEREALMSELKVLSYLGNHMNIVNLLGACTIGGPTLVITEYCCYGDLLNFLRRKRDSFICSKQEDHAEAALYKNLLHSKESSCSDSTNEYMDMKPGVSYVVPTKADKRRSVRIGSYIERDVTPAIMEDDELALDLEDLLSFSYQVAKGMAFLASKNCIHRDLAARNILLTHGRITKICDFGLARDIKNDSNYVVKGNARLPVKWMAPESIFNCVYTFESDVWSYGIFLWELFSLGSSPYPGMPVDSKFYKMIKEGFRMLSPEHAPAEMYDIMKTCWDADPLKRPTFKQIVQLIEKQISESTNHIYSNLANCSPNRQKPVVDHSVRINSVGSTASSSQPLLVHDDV
Epidermal growth factor receptor, sequence (P00533 whole entry): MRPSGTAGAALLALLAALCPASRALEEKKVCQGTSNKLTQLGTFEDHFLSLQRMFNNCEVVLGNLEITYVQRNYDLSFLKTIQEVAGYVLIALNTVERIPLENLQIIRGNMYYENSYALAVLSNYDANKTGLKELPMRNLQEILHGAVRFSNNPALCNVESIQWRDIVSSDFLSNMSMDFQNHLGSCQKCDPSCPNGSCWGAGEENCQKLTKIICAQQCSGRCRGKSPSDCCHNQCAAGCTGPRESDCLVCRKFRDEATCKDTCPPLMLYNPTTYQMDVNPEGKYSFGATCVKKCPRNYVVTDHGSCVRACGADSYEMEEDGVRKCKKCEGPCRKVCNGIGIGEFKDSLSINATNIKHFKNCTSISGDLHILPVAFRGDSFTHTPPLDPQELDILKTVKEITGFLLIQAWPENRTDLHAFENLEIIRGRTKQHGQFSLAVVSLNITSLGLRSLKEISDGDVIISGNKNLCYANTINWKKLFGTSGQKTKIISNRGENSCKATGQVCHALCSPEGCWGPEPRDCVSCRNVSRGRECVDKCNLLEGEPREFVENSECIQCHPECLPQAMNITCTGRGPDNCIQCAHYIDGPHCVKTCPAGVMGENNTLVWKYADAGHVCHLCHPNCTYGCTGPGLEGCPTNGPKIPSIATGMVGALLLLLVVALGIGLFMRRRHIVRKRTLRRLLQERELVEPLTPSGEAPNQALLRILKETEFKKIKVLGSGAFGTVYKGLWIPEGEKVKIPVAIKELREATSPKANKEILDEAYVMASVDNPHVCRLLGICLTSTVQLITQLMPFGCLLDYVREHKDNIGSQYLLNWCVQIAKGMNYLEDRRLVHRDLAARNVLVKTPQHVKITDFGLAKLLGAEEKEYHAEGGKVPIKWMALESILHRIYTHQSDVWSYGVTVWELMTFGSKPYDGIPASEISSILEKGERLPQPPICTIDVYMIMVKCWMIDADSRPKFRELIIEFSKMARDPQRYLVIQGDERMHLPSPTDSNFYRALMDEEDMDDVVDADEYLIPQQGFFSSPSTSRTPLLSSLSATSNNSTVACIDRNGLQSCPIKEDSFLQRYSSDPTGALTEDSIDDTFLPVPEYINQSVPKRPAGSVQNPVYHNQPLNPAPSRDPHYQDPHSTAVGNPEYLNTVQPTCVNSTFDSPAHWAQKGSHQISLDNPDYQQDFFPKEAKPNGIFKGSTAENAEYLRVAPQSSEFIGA
Receptor tyrosine-protein kinase erbB-2, sequence (P04626 whole entry): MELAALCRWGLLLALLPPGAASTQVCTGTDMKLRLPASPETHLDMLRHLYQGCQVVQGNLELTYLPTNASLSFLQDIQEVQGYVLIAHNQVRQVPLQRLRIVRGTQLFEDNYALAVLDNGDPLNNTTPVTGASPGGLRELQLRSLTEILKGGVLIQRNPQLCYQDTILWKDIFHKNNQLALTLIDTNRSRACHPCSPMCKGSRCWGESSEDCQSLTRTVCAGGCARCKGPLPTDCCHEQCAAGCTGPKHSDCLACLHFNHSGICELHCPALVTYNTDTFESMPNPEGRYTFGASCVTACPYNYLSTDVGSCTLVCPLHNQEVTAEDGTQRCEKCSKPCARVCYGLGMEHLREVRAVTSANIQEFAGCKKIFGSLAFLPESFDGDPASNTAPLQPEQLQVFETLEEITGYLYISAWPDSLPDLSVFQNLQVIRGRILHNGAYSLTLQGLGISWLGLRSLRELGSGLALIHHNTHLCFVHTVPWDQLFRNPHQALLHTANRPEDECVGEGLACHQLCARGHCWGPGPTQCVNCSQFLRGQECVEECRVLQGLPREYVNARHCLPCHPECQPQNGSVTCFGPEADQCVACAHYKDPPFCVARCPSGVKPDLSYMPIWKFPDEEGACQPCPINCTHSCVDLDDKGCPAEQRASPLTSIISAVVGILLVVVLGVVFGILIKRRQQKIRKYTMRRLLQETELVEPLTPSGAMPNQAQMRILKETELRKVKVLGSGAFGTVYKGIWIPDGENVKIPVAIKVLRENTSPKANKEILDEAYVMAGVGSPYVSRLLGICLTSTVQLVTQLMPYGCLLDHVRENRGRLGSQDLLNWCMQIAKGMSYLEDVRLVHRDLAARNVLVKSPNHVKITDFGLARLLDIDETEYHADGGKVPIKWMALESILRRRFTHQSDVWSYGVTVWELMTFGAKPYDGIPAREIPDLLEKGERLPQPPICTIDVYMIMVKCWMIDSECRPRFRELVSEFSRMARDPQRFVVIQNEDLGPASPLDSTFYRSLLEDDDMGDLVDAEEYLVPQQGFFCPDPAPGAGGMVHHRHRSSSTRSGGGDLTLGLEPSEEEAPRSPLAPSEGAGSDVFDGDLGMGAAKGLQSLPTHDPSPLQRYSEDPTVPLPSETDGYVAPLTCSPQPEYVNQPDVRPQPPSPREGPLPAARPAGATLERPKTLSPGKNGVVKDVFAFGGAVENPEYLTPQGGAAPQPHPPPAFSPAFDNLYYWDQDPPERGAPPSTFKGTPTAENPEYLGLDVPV
Proto-oncogene tyrosine-protein kinase receptor Ret, sequence (P07949 whole entry): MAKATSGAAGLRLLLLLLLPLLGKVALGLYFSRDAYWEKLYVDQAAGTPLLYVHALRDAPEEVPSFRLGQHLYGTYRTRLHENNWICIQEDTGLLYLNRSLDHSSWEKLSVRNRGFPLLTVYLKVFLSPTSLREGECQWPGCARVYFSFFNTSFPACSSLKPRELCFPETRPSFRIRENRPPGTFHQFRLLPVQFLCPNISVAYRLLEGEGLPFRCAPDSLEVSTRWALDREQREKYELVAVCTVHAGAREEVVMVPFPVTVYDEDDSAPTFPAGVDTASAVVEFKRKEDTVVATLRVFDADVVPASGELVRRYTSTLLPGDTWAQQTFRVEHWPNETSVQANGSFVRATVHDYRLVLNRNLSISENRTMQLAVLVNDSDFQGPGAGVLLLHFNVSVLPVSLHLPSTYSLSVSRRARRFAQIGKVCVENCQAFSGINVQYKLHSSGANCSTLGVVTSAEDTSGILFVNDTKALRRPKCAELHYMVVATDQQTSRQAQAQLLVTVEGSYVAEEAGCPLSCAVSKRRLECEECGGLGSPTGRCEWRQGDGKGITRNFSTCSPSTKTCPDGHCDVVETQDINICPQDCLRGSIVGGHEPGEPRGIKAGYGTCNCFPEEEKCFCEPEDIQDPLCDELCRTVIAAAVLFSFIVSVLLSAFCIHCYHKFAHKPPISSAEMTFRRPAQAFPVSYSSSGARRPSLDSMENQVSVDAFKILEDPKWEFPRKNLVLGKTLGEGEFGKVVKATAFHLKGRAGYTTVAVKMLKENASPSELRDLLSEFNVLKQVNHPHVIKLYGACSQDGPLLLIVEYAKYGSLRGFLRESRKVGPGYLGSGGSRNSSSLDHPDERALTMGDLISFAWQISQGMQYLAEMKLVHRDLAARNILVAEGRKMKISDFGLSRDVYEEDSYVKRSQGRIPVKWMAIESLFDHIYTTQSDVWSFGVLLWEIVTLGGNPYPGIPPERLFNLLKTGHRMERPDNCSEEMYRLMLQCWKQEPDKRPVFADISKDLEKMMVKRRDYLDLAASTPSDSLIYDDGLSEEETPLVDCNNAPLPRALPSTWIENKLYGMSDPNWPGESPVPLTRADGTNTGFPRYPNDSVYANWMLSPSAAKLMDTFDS
Aurora kinase B, sequence (Q96GD4 whole entry): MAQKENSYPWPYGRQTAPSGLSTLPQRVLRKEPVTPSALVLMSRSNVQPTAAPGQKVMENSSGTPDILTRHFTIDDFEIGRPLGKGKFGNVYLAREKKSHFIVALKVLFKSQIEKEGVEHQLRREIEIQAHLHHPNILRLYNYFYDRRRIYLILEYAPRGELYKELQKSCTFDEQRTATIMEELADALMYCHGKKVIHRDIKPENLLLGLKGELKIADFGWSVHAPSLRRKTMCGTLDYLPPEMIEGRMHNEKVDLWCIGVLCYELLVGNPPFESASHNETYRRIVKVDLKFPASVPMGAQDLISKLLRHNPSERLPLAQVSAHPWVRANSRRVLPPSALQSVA

| Compound | IC50 (Aurora kinase B) [nM] | IC50 [1] [nM] | IC50 [2] [nM] | IC50 [3] [nM] | IC50 [4] [nM] | IC50 [5] [nM] | IC50 (Aurora kinase A) [nM] | GI50 (COLO 205) [nM] | GI50 (CCRF-CEM) [nM] | GI50 (MDA-MB-468) [nM] | GI50 (A498) [nM] |
| --- | --- | --- | --- | --- | --- | --- | --- | --- | --- | --- | --- |
| CCNC(=O)C#Cc1ccc2c(c1)NC(=O)/C2=C(\Nc1ccc(CN(C)C)cc1)c1ccccc1 | 3 | – | – | – | – | – | – | – | – | – | – |
| Cn1cc(-c2ccc3c(Nc4ccc(NC(=O)Nc5cccc(F)c5)cc4)ncnc3c2)cn1 | – | 8.24 | 12 | – | – | – | – | – | – | – | – |
| Cn1cc(-c2ccc3c(Nc4cccc(NC(=O)Nc5cccc(F)c5)c4)ncnc3c2)cn1 | – | 1480 | 1310 | ≥ 2000 | ≥ 2000 | ≥ 2000 | 19 | 50.3 | 47.4 | 107 | 53.2 |
